Assay results reported in US6361773B1, “Antibodies produced against cytokine suppressive anti-inflammatory drug binding proteins” (SmithKline Beecham Corporation, priority 1993, dated 2002).
Where two headings read alike, the source gives them in different places.

What was measured:
[1] = system: IL-1 production in human monocytes; test: CSAIDs bioassay (IL-1 dependent EL-4/IL2 induction assay, LPS-stimulated human monocytes); assay type: cell-based; details: Monocyte
Method: The biological assay employed to evaluate CSAIDs activity was the IL-1 dependent EL-4/IL2 induction assay (Simon, P. L. et al., J. Immuno. Meth. 84: 85-94 (1985)). Briefly, Human monocytes were plated in 24-well plates in LPS-free RPMI 1640 media containing 1% human AB serum at a concentration of 10^6 per millilitre per well and allowed to adhere for 1 h at 37° C.; non-adherent cells were removed by gentle washing. Test compounds or media were added to the cells 0 or 1 h before the addition of bacterial lipopolysaccharide (E. coli 001:B4; Difco, Detroit) at 10 ng/ml. The cultures were then incubated at various intervals as indicated at 37° C. in a humidified 5% CO2 atmosphere. At the end of the incubation period, culture supernatants were collected. The residual adherent monocytes were lysed in a buffer containing 0.15M octyl-glucopyranoside, 25 mM Hepes, and 0.5 mM phenylmethylsulfonylfluoride in saline. Both supernatants and cell lysates were clarified by centrifugation and assayed for IL-1 activity.
IL-1 activity was measured by its ability to stimulate the secretion of IL-2 by EL-4 (ATCC TIB181) cells in the presence of A23187 ionophore. Serial dilutions of the samples were incubated with 10^5 EL-4 cells in the presence of 2×10^−7 M calcium ionophore A23187. After overnight incubation, 0.1 ml of a cell-free supernatant from each culture was taken and incubated with 10^4 IL-2-dependent […] (ATCC-T11B214) cells. Following an additional 20 hours of incubation, the cultures were pulsed with 1 μCi of tritiated thymidine for 4 h. The cells were then harvested onto glass-fibre filters and the radioactivity deterrnined by liquid scintillation counting.

[2] = target: T1, CSAID binding protein (CSBP) in THP.1 cytosol (Homo sapiens, UniProt Q16539); test: CSAID binding assay with 3H-Compound I and THP.1 cytosol
T1 construct: endogenous in cells; host or cells: THP.1 (ATCC TIB 202), cytosolic fraction (100,000 x g supernatant)

[3] = Table II, read-out: IC50 in competitive CSAID binding assay

T1 sequence (Q16539 whole entry): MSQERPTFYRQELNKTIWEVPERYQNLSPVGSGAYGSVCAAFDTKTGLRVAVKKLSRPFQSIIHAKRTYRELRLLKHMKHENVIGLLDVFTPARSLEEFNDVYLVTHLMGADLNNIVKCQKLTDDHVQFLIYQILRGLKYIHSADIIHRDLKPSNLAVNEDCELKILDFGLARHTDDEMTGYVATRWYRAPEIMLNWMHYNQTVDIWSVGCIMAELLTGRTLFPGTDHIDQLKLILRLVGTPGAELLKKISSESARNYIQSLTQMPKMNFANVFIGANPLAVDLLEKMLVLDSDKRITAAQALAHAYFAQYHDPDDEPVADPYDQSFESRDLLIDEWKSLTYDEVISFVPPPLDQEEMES

IC50 [2, 3] [µM] | Compound | IC50 ([1]; read-out: IC50 in the bioassay) [µM] | other results
 | [N-]=[N+]=Nc1ccc(-c2nc(-c3cccc([125I])c3)c(-c3ccncc3)[nH]2)cc1 [Compound IV, 4-[2-(4-azidophenyl)-5-(3-^125Iodo-phenyl)-1H-imidazol-4-yl]pyridine] |  | IC50 ([1]; read-out: IC50 in a CSAIDs bioassay): 3 µM; IC50 ([2]; read-out: IC50 in a competitive binding assay): 0.5 to 0.8 µM
 | CCc1nc(-c2ccc(OC)cc2)[nH]c1-c1ccncc1 [Compound VIII] | > 5 | 
 | N#Cc1ccc(-c2nc(-c3ccc(F)cc3)c(-c3ccnc4ccccc34)n2O)cc1 [Compound VII] | 0.02 | 
154 | CC(Cc1ccc(O)c(O)c1)C(C)Cc1ccc(O)c(O)c1 (stereo not drawn) [NDGA] |  | 
139 | NC(=O)N1C(=O)/C(=C(\O)c2cccs2)c2cc(Cl)ccc21 [Tenidap] |  | 
